The assay relates to P388 leukemia ip, CD2F1 mice, survival T/C. Briefly: NCI In Vivo Anticancer Drug Screen. Data for tumor model P388 Leukemia (intraperitoneal) in CD2F1 (CDF1) mice. To be noted: endpoint: median survival time, higher = longer survival. In a few lines: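 Mice carrying the transplanted tumor received test compound or vehicle. Survival was recorded in each group, and the value is the treated-group measurement divided by that of the vehicle-treated control group.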

[1] abbreviates: dose: 60.0 mg/kg/injection, schedule: Q01DX005 (ip), vehicle: saline with Tween-80.
Where [2] appears, read: dose: 120.0 mg/kg/injection, schedule: Q01DX005 (ip), vehicle: saline with Tween-80.
[3] abbreviates: dose: 240.0 mg/kg/injection, schedule: Q01DX005 (ip), vehicle: saline with Tween-80.
Where [4] appears, read: dose: 50.0 mg/kg/injection, schedule: Q01DX009 (ip), vehicle: Klucel (hydroxypropylcellulose) (HPC).
Setting [5] is: dose: 100.0 mg/kg/injection, schedule: Q01DX009 (ip), vehicle: Klucel (hydroxypropylcellulose) (HPC).
The mark [6] stands for this setting: dose: 60.0 mg/kg/injection, schedule: Q01DX005 (ip), vehicle: Klucel (hydroxypropylcellulose) (HPC).
[7] abbreviates: dose: 120.0 mg/kg/injection, schedule: Q01DX005 (ip), vehicle: Klucel (hydroxypropylcellulose) (HPC).
The mark [8] stands for this setting: dose: 240.0 mg/kg/injection, schedule: Q01DX005 (ip), vehicle: Klucel (hydroxypropylcellulose) (HPC).
Where [9] appears, read: dose: 50.0 mg/kg/injection, schedule: Q01DX009 (ip), vehicle: saline.
The mark [10] stands for this setting: dose: 100.0 mg/kg/injection, schedule: Q01DX009 (ip), vehicle: saline.
Where [11] appears, read: dose: 200.0 mg/kg/injection, schedule: Q01DX009 (ip), vehicle: saline.
[12] abbreviates: dose: 12.5 mg/kg/injection, schedule: Q01DX009 (ip), vehicle: saline.
The mark [13] stands for this setting: dose: 25.0 mg/kg/injection, schedule: Q01DX009 (ip), vehicle: saline.
Setting [14] is: dose: 50.0 mg/kg/injection, schedule: Q01DX005 (ip), vehicle: Klucel (hydroxypropylcellulose) (HPC).
The mark [15] stands for this setting: dose: 100.0 mg/kg/injection, schedule: Q01DX005 (ip), vehicle: Klucel (hydroxypropylcellulose) (HPC).
Setting [16] is: dose: 200.0 mg/kg/injection, schedule: Q01DX005 (ip), vehicle: Klucel (hydroxypropylcellulose) (HPC).
The mark [17] stands for this setting: dose: 100.0 mg/kg/injection, schedule: Q01DX009 (ip), vehicle: saline with Tween-80.
Setting [18] is: dose: 200.0 mg/kg/injection, schedule: Q01DX009 (ip), vehicle: saline with Tween-80.
Where [19] appears, read: dose: 50.0 mg/kg/injection, schedule: Q04DX002 (ip), vehicle: Klucel (hydroxypropylcellulose) (HPC).
Where [20] appears, read: dose: 100.0 mg/kg/injection, schedule: Q04DX002 (ip), vehicle: Klucel (hydroxypropylcellulose) (HPC).
Where [21] appears, read: dose: 200.0 mg/kg/injection, schedule: Q04DX002 (ip), vehicle: Klucel (hydroxypropylcellulose) (HPC).
Setting [22] is: dose: 50.0 mg/kg/injection, schedule: Q01DX009 (ip), vehicle: saline with Tween-80.

The results in this text go back to PubChem BioAssay AID330 (DTP/NCI, 2004).

Molecules are shown by their SMILES. Several values for one entry are separate records, joined by “and”; a condition that tells them apart may be missing. Equal entries are not always repeated. Toxic doses and inconclusive results are not listed.

On to `O=C1OCCCOC(=O)c2cc(ccc2O)OCC#CC#CCOc2ccc(O)c1c2`, for which the T/C by setting is: under setting [1], 92 % of control; under setting [2], 97 % of control; under setting [3], 97 % of control.

With `O=C(Nc1c(Cl)cccc1Cl)Nc1c(Cl)cccc1Cl`, the T/C runs as follows: under setting [1], 92 % of control; under setting [2], 92 % of control; under setting [3], 94 % of control.

For the compound `O=C(NCCN1CCCCC1)c1ccc(Cl)cc1Cl`, the T/C by setting is: under setting [4], 101 % of control; under setting [5], 98 % of control.

As to `CCn1c(=S)[nH]c2sc3c(c2c1=O)CCCC3`, the T/C under setting [1] is 92 % of control and the T/C under setting [2] was 89 % of control.

For the compound `CN1C(=O)C(CC(N)=O)NC1=S` (stereo not drawn), the T/C is 95 % of control under setting [6], 86 % of control under setting [7] and 93 % of control under setting [8].

Turning to `CSCCC(NC(C)=O)C(C)=O` (stereo not drawn), the T/C by setting is: under setting [9], 110 % of control; under setting [10], 109 % of control; under setting [11], 105 % of control.

Regarding `O=C1C(N=Nc2cc(Cl)ccc2Cl)C(O)N(c2ccccc2)C(=S)N1c1cccc(Cl)c1Cl` (stereo not drawn), the T/C (dose: 100.0 mg/kg/injection, schedule: Q01DX001 (ip), vehicle: Klucel (hydroxypropylcellulose) (HPC)) is 98 % of control; the T/C (dose: 200.0 mg/kg/injection, schedule: Q01DX001 (ip), vehicle: Klucel (hydroxypropylcellulose) (HPC)) was 97 % of control; the T/C (dose: 400.0 mg/kg/injection, schedule: Q01DX001 (ip), vehicle: Klucel (hydroxypropylcellulose) (HPC)) is 92 % of control.

As to `O=C(O)c1ccccc1SSc1ccccc1C(=O)O`, the T/C is 96 % of control under setting [4] and 102 % of control under setting [5].

On to `COC(=O)C12Oc3ccc(-c4ccc5c(c4O)C(=O)C4=CCC(C)C(O)C4(C(=O)OC)O5)c(O)c3C(=O)C1=CCC(C)C2O` (stereo not drawn), for which the T/C was 91 % of control (dose: 2.5 mg/kg/injection, schedule: Q01DX009 (ip), vehicle: saline with Tween-80); 95 % of control (dose: 5.0 mg/kg/injection, schedule: Q01DX009 (ip), vehicle: saline with Tween-80); 88 % of control (dose: 10.0 mg/kg/injection, schedule: Q01DX009 (ip), vehicle: saline with Tween-80).

On to `CCc1c(C#N)c(S)[nH]c(=S)c1C#N`, for which the T/C is, setting by setting: under setting [12], 90 % of control; under setting [13], 100 % of control; under setting [9], 98 % of control and 102 % of control.

Turning to `ClCCCN1CCN(CCCCl)CC1`, the T/C is, setting by setting: (dose: 12.5 mg/kg/injection, schedule: Q01DX009 (ip), vehicle: distilled water + alcohol) 113 % of control; (dose: 25.0 mg/kg/injection, schedule: Q01DX009 (ip), vehicle: distilled water + alcohol) 121 % of control; (dose: 100.0 mg/kg/injection, schedule: Q01DX009 (ip), vehicle: distilled water + alcohol) 157 % of control and 190 % of control.

For `O=C(O)CCNC(Cc1ccc(O)cc1)C(=O)O` (stereo not drawn), the T/C is 96 % of control under setting [14], 102 % of control under setting [15] and 103 % of control under setting [16].

Turning to `COc1ccc2c(ccc3c(=O)c4c([nH]c32)CCC4)n1`, the T/C runs as follows: (dose: 12.5 mg/kg/injection, schedule: Q04DX002 (ip), vehicle: saline with Tween-80) 111 % of control; (dose: 25.0 mg/kg/injection, schedule: Q04DX002 (ip), vehicle: saline with Tween-80) 114 % of control; (dose: 50.0 mg/kg/injection, schedule: Q04DX002 (ip), vehicle: saline with Tween-80) 95 % of control.

Regarding `Oc1cc2c(cc1C(c1ccc(Cl)cc1)N1CCN(C(c3ccc(Cl)cc3)c3cc4c(cc3O)OCO4)CC1)OCO2` (stereo not drawn), the T/C is 89 % of control under setting [6] and 88 % of control under setting [7].

Consider `CC(C)N1CCN(c2ccc(OCC3COC(Cn4cncn4)(c4ccc(Cl)cc4Cl)O3)cc2)CC1` (stereo not drawn), for which the T/C is, setting by setting: under setting [14], 100 % of control; under setting [15], 101 % of control.

Consider `Nc1cc([N+](=O)[O-])ccc1-c1ccc(NC(=O)CCNC=O)cc1`, for which the T/C (dose: 12.5 mg/kg/injection, schedule: Q01DX009 (ip), vehicle: other) is 93 % of control; the T/C (dose: 25.0 mg/kg/injection, schedule: Q01DX009 (ip), vehicle: other) was 97 % of control; the T/C (dose: 50.0 mg/kg/injection, schedule: Q01DX009 (ip), vehicle: other) was 90 % of control; the T/C (dose: 100.0 mg/kg/injection, schedule: Q01DX009 (ip), vehicle: other) was 93 % of control; the T/C (dose: 200.0 mg/kg/injection, schedule: Q01DX009 (ip), vehicle: other) was 91 % of control.

`COc1ccc2ccccc2c1/C=N/N1CCCCC1`: the T/C is, setting by setting: under setting [17], 100 % of control; under setting [18], 104 % of control; (dose: 400.0 mg/kg/injection, schedule: Q01DX009 (ip), vehicle: saline with Tween-80) 95 % of control.

Take `Cc1ccc2c(c1)N=C(OCCCN(C)C)/C(=C/c1ccccc1)O2`: the T/C under setting [19] was 105 % of control, the T/C under setting [20] was 99 % of control and the T/C under setting [21] was 101 % of control.

With `CC(=O)NS(=O)(=O)c1ccc(N=NC2C(=O)N(C(=O)c3ccncc3)N=C2C)cc1` (stereo not drawn), the T/C was 95 % of control under setting [22], 97 % of control under setting [17] and 100 % of control under setting [18].

For the compound `c1cc2c(ccc3c4c([nH]c32)CCCC4)cn1`, the T/C is 101 % of control (dose: 12.5 mg/kg/injection, schedule: Q01DX009 (ip), vehicle: saline with Tween-80); 105 % of control (dose: 25.0 mg/kg/injection, schedule: Q01DX009 (ip), vehicle: saline with Tween-80); 99 % of control under setting [22]; 98 % of control under setting [17].

On to `CN1CCCC(C(=O)c2ccccc2)C1` (stereo not drawn), for which the T/C under setting [12] was 109 % of control; the T/C under setting [13] was 105 % of control; the T/C under setting [9] was 107 % of control and 94 % of control.

Turning to `Brc1cccc[n+]1Cc1cc2ccccc2c2ccccc12`, the T/C (dose: 25.0 mg/kg/injection, schedule: Q04DX002 (ip), vehicle: Klucel (hydroxypropylcellulose) (HPC)) is 105 % of control; the T/C under setting [19] was 106 % of control; the T/C under setting [20] is 112 % of control.

For the compound `COc1ccc2c3c(cnc2c1)P(C)(=O)CC3` (stereo not drawn), the T/C under setting [9] is 101 % of control, the T/C under setting [10] is 96 % of control and the T/C under setting [11] was 102 % of control.

For the compound `N#Cc1nnc2cc(-c3ccccc3)nn2c1C1CC1`, the T/C by setting is: under setting [6], 96 % of control; under setting [7], 96 % of control; under setting [8], 100 % of control.

Consider `CS(=O)(=O)C(CCC(=O)c1ccc([N+](=O)[O-])cc1)C(=O)c1ccccc1` (stereo not drawn), for which the T/C was 98 % of control under setting [14], 96 % of control under setting [15] and 104 % of control under setting [16].

`CSCC[C@]1(C)C(=O)N(C)[C@H](C(C)(C)C)N1C(=O)c1ccccc1`: the T/C runs as follows: under setting [1], 99 % of control; under setting [2], 100 % of control; under setting [3], 93 % of control.

`O=C1/C(=C/c2ccccc2)CCCC12C(c1ccccc1)N2C1CCCCC1` (stereo not drawn): the T/C was 93 % of control under setting [20]; 86 % of control under setting [21]; 92 % of control (dose: 400.0 mg/kg/injection, schedule: Q04DX002 (ip), vehicle: Klucel (hydroxypropylcellulose) (HPC)).

Take `COC(=O)C(=O)C1CSC2=C(CS(=O)(=O)c3ccccc32)C1=O` (stereo not drawn): the T/C is, setting by setting: under setting [1], 98 % of control; under setting [2], 104 % of control; under setting [3], 104 % of control.

For `CS(=O)(=O)c1ccccc1NN`, the T/C by setting is: under setting [4], 111 % of control; under setting [5], 105 % of control; (dose: 200.0 mg/kg/injection, schedule: Q01DX009 (ip), vehicle: Klucel (hydroxypropylcellulose) (HPC)) 100 % of control.

With `COc1cccc(N(CCO)C2CCCCC2)c1`, the T/C is 100 % of control (dose: 100.0 mg/kg/injection, schedule: Q04DX003 (ip), vehicle: saline with Tween-80); 90 % of control (dose: 200.0 mg/kg/injection, schedule: Q04DX003 (ip), vehicle: saline with Tween-80); 88 % of control (dose: 400.0 mg/kg/injection, schedule: Q04DX003 (ip), vehicle: saline with Tween-80).
